Tests used:
Type in all cases: physicochemical
[1] = pH of Zinc Solutions
Source text: Other minerals which may be administered in the subject form include calcium, iron, magnesium, manganese and the like.

[2] = 0.1M Zinc Gluconate and 0.1M Amino Acid Solutions: pH and precipitation on adjusting pH to 7.0; details: for Observations: 0.1M zinc gluconate and 0.1M amino acid, pH adjusted to 7.0 with NaOH; for pH: 0.1M zinc gluconate and 0.1M amino acid solution, before adjustment
Source text: There are seven standard amino acids with uncharged polar R groups which can hydrogen-bond with water. […] The basic amino acids, in which the R groups have a net positive charge at pH 7.0, all have six carbon atoms. […] Histidine is the only amino acid having buffering capacity near pH 7.0 with a pK′ of the R group near 7.0. All of the basic amino acids as shown in the following table are suitable for use in the present invention: […]

[3] = pH of 2M amino acid and 1M zinc gluconate solution in water (Example 11); details: 2M amino acid and 1M zinc gluconate dissolved in water, before neutralization
Description: A formulation in powder form containing zinc and lysine which when dissolved in water forms a neutral solution was prepared as follows: Two M lysine and 1M zinc gluconate was dissolved in water to form a solution having a pH 7.4 and was neutralized to pH 7 with HCl. After the zinc and amino solution was neutralized, it was frozen immediately in liquid nitrogen. The frozen solution was then lyophilized for 24 hours to remove water.

Compound | Observations [2] | acidity of zinc gluconate neutralized by adding the amino acid and adjusting the pH to 7.0 [2] | pH [2] | also measured
[Cl-].[Cl-].[Zn+2] [Zinc chloride] |  |  |  | pH ([1]; 0.1M solution): 6.4; pH ([1]; 0.2M solution): 6.2
CSCC[C@H](N)C(=O)O [Methionine] | pH adjusted to 7.0 with NaOH precipitates |  |  | 
C[C@@H](O)[C@H](N)C(=O)O [Threonine] | does not precipitate | can be neutralized |  | 
NC(=O)CC[C@H](N)C(=O)O [Glutamine] |  | can be neutralized | 5.0 | 
N[C@@H](Cc1c[nH]c2ccccc12)C(=O)O [Tryptophan] | Not soluble |  |  | 
CC(C)C[C@H](N)C(=O)O [Leucine] | pH adjusted to 7.0 with NaOH precipitates |  | 5.0 | 
CC(C)[C@H](N)C(=O)O [Valine] |  | can be neutralized | 5.1 | 
CC(=O)[O-].CC(=O)[O-].[Zn+2] [Zinc acetate] |  |  |  | pH ([1]; 0.1M solution): 6.7; pH ([1]; 0.2M solution): 6.6
N[C@@H](CS)C(=O)O [Cysteine] | precipitates | cannot be made |  | 
N[C@@H](Cc1c[nH]cn1)C(=O)O [Histidine] |  | can be neutralized |  | pH of solution [3]: 5.5
N[C@@H](Cc1ccccc1)C(=O)O [Phenylalanine] | precipitates |  | 4.9 | 
Zinc gluconate |  |  |  | neutralization with sodium hydroxide ([2]; zinc salt alone, without amino acid): cannot be neutralized with sodium hydroxide without precipitating the mixture; pH ([1]; 0.1M solution): 5.85; pH ([1]; 0.2M solution): 5.65
O=S(=O)([O-])[O-].[Zn+2] [Zinc sulfate] |  |  |  | pH ([1]; 0.1M solution): 5.7; pH ([1]; 0.2M solution): 5.45
CC[C@H](C)[C@H](N)C(=O)O [Isoleucine] |  | can be neutralized | 5.1 | 
N[C@@H](CO)C(=O)O [Serine] | does not precipitate | can be neutralized |  | 
C[C@H](N)C(=O)O [Alanine] |  | can be neutralized | 5.1 | 
NCCCC[C@H](N)C(=O)O [Lysine] |  | can be neutralized | 7.4 | pH of solution [3]: 7.4
NC(=O)C[C@H](N)C(=O)O [Asparagine] |  | can be neutralized | 4.8 | 

From patent publication US20220378747A1, “TOPICAL COMPOSITION FOR TREATING SKIN WOUNDS” (priority 2021, published 2022)
